Results published in BindingDB's records for doi:10.1016/j.bioorg.2016.10.002 (Hazara University, 2016).

Legend:
[1] = target: Carboxylic ester hydrolase (Equus caballus, UniProt Q9N1N9); assay: In vitro AChE and BChE Assay; settings: pH 8
Description: (§1) The synthesized compounds (each separately) were dissolved in a mixture of DMSO (1 ml) and methanol (9 ml) and then diluted in KH2PO4/K2HPO4 buffer (0.1 M, pH 8.0) to obtain desired concentration. […] The mixture was pre-incubated at 30 °C for 10 min and followed by adding 1 mM ATCI or BTCI and incubated again for 15 min. […] Instead of inhibitor, DMSO was used asnegative control to subtract its effect on activity. All reactions were carried out in triplicate.

Acetylcholinesterase = Acetylcholinesterase (Electrophorus electricus, UniProt O42275); assay: In vitro AChE and BChE Assay; settings: pH 8
Description: as §1

Chain of Acetylcholinesterase (O42275 whole entry): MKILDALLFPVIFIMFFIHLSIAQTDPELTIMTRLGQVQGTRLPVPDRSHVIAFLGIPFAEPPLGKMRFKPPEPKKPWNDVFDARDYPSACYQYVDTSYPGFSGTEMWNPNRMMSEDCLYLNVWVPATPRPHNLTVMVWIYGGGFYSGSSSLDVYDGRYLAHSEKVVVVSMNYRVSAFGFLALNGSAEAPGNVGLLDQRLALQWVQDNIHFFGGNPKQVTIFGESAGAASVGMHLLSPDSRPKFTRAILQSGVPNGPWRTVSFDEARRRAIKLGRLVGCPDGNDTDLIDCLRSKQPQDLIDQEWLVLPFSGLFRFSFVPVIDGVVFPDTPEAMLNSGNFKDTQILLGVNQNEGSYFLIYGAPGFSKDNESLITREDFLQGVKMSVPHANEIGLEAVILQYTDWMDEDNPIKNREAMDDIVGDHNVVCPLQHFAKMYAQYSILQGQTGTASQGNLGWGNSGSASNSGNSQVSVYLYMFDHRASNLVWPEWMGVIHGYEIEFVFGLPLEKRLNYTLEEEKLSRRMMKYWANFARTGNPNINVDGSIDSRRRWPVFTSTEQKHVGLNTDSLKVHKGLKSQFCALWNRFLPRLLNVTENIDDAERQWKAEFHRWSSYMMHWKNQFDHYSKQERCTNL
Chain of Carboxylic ester hydrolase (Q9N1N9 whole entry): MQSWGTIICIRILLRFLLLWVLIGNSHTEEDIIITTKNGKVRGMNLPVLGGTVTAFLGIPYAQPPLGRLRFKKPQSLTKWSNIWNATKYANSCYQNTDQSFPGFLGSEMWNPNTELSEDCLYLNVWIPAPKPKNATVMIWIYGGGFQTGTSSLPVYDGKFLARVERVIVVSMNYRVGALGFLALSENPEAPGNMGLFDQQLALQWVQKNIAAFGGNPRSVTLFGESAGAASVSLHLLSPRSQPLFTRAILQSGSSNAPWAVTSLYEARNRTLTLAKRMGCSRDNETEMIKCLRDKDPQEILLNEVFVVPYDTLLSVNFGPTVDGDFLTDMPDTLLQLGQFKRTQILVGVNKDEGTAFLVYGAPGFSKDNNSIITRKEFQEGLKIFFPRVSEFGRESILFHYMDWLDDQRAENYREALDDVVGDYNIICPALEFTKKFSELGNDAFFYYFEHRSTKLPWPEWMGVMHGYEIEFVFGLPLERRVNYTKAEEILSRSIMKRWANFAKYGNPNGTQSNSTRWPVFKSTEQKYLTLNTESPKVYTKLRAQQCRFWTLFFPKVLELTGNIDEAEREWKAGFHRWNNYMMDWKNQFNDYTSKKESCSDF

| Structure (SMILES) | IC50 [1] | IC50 (Acetylcholinesterase) |
| --- | --- | --- |
| CC(=O)C1=C(C)NC(SCC(=O)Nc2ccccc2)=NC1c1ccc(Br)cc1 (stereo not drawn) [2-(5-Acetyl-4-(4-bromophenyl)-6-methyl-1,4-dihydropyrimidin-2-ylthio)-N-phenylacetamide (4c)] | 24.5 µM | 8.23 µM |
| CC(=O)C1=C(C)NC(NCC(=O)Nc2ccc(Cl)cc2)=NC1c1ccccc1 (stereo not drawn) [2-(5-Acetyl-6-methyl-4-phenyl-1,4-dihydropyrimidin-2-ylamino)-N-(4-chlorophenyl)acetamide (5b)] | 27.2 µM | 2.01 µM |
| CC(=O)C1=C(C)NC(NCC(=O)Nc2ccccc2)=NC1c1ccccc1 (stereo not drawn) [2-(5-Acetyl-6-methyl-4-phenyl-1,4-dihydropyrimidin-2-ylamino)-N-phenylacetamide (5a)] | 15 µM | 5.33 µM |
| CC(=O)C1=C(C)NC(N)=NC1c1ccccc1 (stereo not drawn) [1-(2-Amino-6-methyl-4-phenyl-1,4-dihydropyrimidin-5-yl)ethanone (2a)] |  | 41.3 µM |
| CC(=O)C1=C(C)NC(SCC(=O)Nc2ccc(C)cc2)=NC1c1ccc(C)cc1 (stereo not drawn) [2-(5-Acetyl-6-methyl-4-p-tolyl-1,4-dihydropyrimidin-2-ylthio)-N-p-tolylacetamide (4h)] | 56.3 µM | 7.63 µM |
| CC(=O)C1=C(C)NC(SCC(=O)Nc2ccc(C)cc2)=NC1c1ccc(Br)cc1 (stereo not drawn) [2-(5-Acetyl-4-(4-bromophenyl)-6-methyl-1,4-dihydropyrimidin-2-ylthio)-N-p-tolylacetamide (4e)] | 52.8 µM | 1.39 µM |
| CC(=O)C1=C(C)NC(=S)NC1c1ccc(OCc2ccccc2)cc1 (stereo not drawn) [1-(4-(4-(Benzyloxy)phenyl)-6-methyl-2-thioxo-3,4-tetrahydropyrimidin-5-yl)ethanone (1c)] |  | 28.1 µM |
| CC(=O)C1=C(C)NC(NCC(=O)Nc2ccc(C)cc2)=NC1c1ccc(Br)cc1 (stereo not drawn) [2-(5-Acetyl-4-(4-bromophenyl)-6-methyl-1,4-dihydropyrimidin-2-ylamino)-N-p-tolylacetamide (5e)] | 20.9 µM | 3.13 µM |
| CC(=O)C1=C(C)NC(NCC(=O)Nc2ccccc2)=NC1c1ccc(Br)cc1 (stereo not drawn) [2-(5-Acetyl-4-(4-bromophenyl)-6-methyl-1,4-dihydropyrimidin-2-ylamino)-N-phenylacetamide (5c)] | 38.5 µM | 12.9 µM |
| CC(=O)C1=C(C)NC(=S)NC1c1ccc(Br)cc1 (stereo not drawn) [1-(4-(4-Bromophenyl)-6-methyl-2-thioxo-3,4-tetrahydropyrimidin-5-yl)ethanone (1b)] |  | 53.2 µM |
| CC(=O)C1=C(C)NC(SCC(=O)Nc2ccc(Cl)cc2)=NC1c1ccccc1 (stereo not drawn) [2-((5-Acetyl-6-methyl-4-phenyl-1,4-dihydropyrimidin-2-yl)thio)-N-(4-chlorophenyl)acetamide (4b)] | 16.4 µM | 1.97 µM |
| CC(=O)C1=C(C)NC(=S)NC1c1ccc(Cl)cc1 (stereo not drawn) [1-(4-(4-Chlorophenyl)-6-methyl-2-thioxo-3,4-tetrahydropyrimidin-5-yl)ethanone (1e)] |  | 59.9 µM |
| CC(=O)C1=C(C)NC(SCC(=O)Nc2ccc(C)cc2)=NC1c1ccc(Cl)cc1 (stereo not drawn) [2-(5-Acetyl-4-(4-chlorophenyl)-6-methyl-1,4-dihydropyrimidin-2-ylthio)-N-p-tolylacetamide (4f)] | 50 µM | 1.11 µM |
| CC(=O)C1=C(C)NC(N)=NC1c1ccc(Br)cc1 (stereo not drawn) [1-(2-Amino-4-(4-bromophenyl)-6-methyl-1,4-dihydropyrimidin-5-yl)ethanone (2b)] |  | 58 µM |
| CC(=O)C1=C(C)NC(=S)NC1c1ccc(C)cc1 (stereo not drawn) [1-(6-Methyl-2-thioxo-4-p-tolyl-3,4-tetrahydropyrimidin-5-yl)ethanone (1d)] |  | 55.9 µM |
| CC(=O)C1=C(C)NC(SCC(=O)Nc2ccccc2)=NC1c1ccccc1 (stereo not drawn) [2-(5-Acetyl-6-methyl-4-phenyl-1,4-dihydropyrimidin-2-ylthio)-N-phenylacetamide (4a)] | 2.37 µM | 0.17 µM |
| CC(=O)C1=C(C)NC(N)=NC1c1ccc(OCc2ccccc2)cc1 (stereo not drawn) [1-(2-Amino-4-(4-(benzyloxy)phenyl)-6-methyl-1,4-dihydropyrimidin-5-yl)ethanone (2c)] |  | 39.5 µM |
| CC(=O)C1=C(C)NC(=S)NC1c1ccccc1 (stereo not drawn) [5-Aceto-6-methyl-4-phenyl-3,4-dihydropyrimidin-2(1H)-thione (1a)] |  | 87.6 µM |
| CC(=O)C1=C(C)NC(N)=NC1c1ccc(Cl)cc1 (stereo not drawn) [1-(2-Amino-4-(4-chlorophenyl)-6-methyl-1,4-dihydropyrimidin-5-yl)ethanone (2e)] |  | 68.3 µM |
| CC(=O)C1=C(C)NC(NCC(=O)Nc2ccc(C)cc2)=NC1c1ccc(C)cc1 (stereo not drawn) [2-(5-Acetyl-6-methyl-4-p-tolyl-1,4-dihydropyrimidin-2-ylamino)-N-p-tolylacetamide (5h)] | 29.4 µM | 7.87 µM |
| CC(=O)C1=C(C)NC(NCC(=O)Nc2ccc(C)cc2)=NC1c1ccc(Cl)cc1 (stereo not drawn) [2-(5-Acetyl-4-(4-chlorophenyl)-6-methyl-1,4-dihydropyrimidin-2-ylamino)-N-p-tolylacetamide (5f)] | 26.4 µM | 3.08 µM |
